Experimental data published in patent US7976878B2, “Use of winter savory (Satureja montana) or the extracts thereof for the preparation of medicaments for the treatment of the premature ejaculation” (Indena S.p.A., priority 2004, dated 2011).
“Also recorded” adds a separate entry of the source.

Tested on: Sprague-Dawley rats
Experiment: Copulatory activity (sexual behaviour) test in male rats with very short ejaculation latency
Type: in vivo, rat
Settings: for ejaculation latency (EL) / intromission frequency (IF) / intromission latency (IL) / mount frequency (MF) / mount latency (ML) / postejaculatory interval (PEI): 45 min before test, mean ± SEM (n = 8-10)
Description: The resulting extract was solubilised in Tween 80 (10%) and water and administered to test animals through a gastric probe, in a volume of 5 ml/kg, at different doses, 45 minutes before the in vivo test. Sprague-Dawley rats were used, both males (weighing approx. 220 g) and females (weighing approx. 160 g), from Harlan Italy (Udine, Italy). The animals were housed under controlled temperature and humidity conditions (22±1° C., 60% humidity), with 12 hours inverted light-darkness cycle, with lights on at 7 a.m. Females were ovariectomized and subcutaneously injected with estradiol valerate (500 μg) and progesterone (2 mg) 48 hours after, to induce estrus. Male rats with very short ejaculation latency time were chosen through starting screening consisting of 7 pre-tests [A. Ågmo, Male rat sexual behavior, Brain Research Protocols 1: 203-209, 1997]. The resulting extract according to Example II or rosmarinic acid were solubilised in Tween 80 (10%) and water and administered to animals, by gastric probe, in a volume of 5 ml/kg, at different doses, 45 minutes before carrying out all the in vivo tests. Sexual behaviour was evaluated under quite conditions, with feeble red light, according to the standard procedure [A. Ågmo, Male rat sexual behavior, Brain Research Protocols 1: 203-209, 1997]. The main parameters recorded during the test were: 1) mount latency (ML); 2) intromission latency (IL); 3) ejaculation latency (EL); 4) postejaculatory interval (PEI); 5) mount frequency (MF); 6) intromission frequency (IF).

[1] = rosmarinic acid 10 mg/kg by gastric probe
[2] = rosmarinic acid 20 mg/kg by gastric probe

Structure (SMILES): O=C(/C=C/c1ccc(O)c(O)c1)O[C@H](Cc1ccc(O)c(O)c1)C(=O)O [Rosmarinic acid, rosmarinic acid]
- ejaculation latency (EL) [1]: 1282.2 ± 90.4 s
- intromission frequency (IF) [1]: 19.8 ± 1.2 n°
- intromission latency (IL) [1]: 393.9 ± 89.8 s
- mount frequency (MF) [1]: 1.6 ± 0.3 n°
- mount latency (ML) [1]: 382.4 ± 93.6 s
- postejaculatory interval (PEI) [1]: 548.5 ± 45.5 s
- ejaculation latency (EL) [2]: 1493.1 ± 81.9 s
- intromission frequency (IF) [2]: 27.3 ± 0.7 n°
- intromission latency (IL) [2]: 408.4 ± 48.6 s
- mount frequency (MF) [2]: 1.1 ± 0.1 n°
- mount latency (ML) [2]: 425.8 ± 83.2 s
- postejaculatory interval (PEI) [2]: 602.2 ± 102.4 s
- activity on copulatory activity / ejaculation latency compared with the extract (in words) (rosmarinic acid, doses of 10 and 20 mg/kg, same experimental conditions): equivalent activity to that of the extract; also recorded: same results
